Here are results for 2 compounds from patent US20150141460A1, “Anti-inflammatory Compositions” (Cambridge Enterprise Limited, priority 2007, published 2015).

A short description of data set [1]: Identification of the primary metabolites in pooled rat urine by LC-MS-MS. The class given is in vivo. As to conditions: single oral dose 3 mg/kg in 1% CMC, pooled urine over 24 hrs, qualitative, 3 mg/kg. As to the method: Urine was collected from rats exposed to a single oral dose (3 mg/kg in 1% CMC) of each compound over a 24 hour period in metabolic cages. The pooled urine sample was then subjected to full scan mass spectral analysis, using the same LC-MS conditions as described in example 1 above. Further MS-MS analysis of the product ions was then performed, and likely fragmentations/re-arrangements assigned from the publicly available Metabolite ID database.
For the major metabolites, the assigned structures were confirmed by synthesis of authentic samples, using methods well known in the art, which were subject to LC-MS-MS analysis under the same conditions as the urine samples.
Note that metabolite ID studies provide only qualitative estimates of the relative amounts of the different metabolites present, and separately validated assays with appropriate internal standards would be required to quantitate each metabolite species.

In data set [2] the target is T1, NK2 receptor (Homo sapiens, UniProt P21452).
T1 construct: purchased CEREP (screening panel)
T1 sequence (P21452 1-398): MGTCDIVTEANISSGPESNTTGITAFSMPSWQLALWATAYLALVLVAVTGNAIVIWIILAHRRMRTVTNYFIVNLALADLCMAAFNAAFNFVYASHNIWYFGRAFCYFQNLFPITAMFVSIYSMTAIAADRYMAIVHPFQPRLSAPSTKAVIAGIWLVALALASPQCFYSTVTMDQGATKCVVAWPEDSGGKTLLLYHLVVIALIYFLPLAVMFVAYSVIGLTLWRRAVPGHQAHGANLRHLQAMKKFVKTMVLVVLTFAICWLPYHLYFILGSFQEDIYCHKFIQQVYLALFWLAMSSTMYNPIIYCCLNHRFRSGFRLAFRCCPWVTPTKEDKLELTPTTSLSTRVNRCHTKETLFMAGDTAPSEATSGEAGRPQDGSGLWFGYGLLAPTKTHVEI
Put plainly: CEREP panel binding, NK2 receptor. The following applies: estimated from single concentration 10 μM; read-out: estimated ED50 for interaction with the NK2 receptor. As to the method: FIGS. 5A-5F show the profile of cross-reactivity for each of the five compounds (I′) to (V) (FIG. 5A: (II); FIG. 5B: (III); FIG. 5C: (V); FIG. 5D: (I′) and FIG. 5E: (IV)) against a panel of 75 different receptors that compose the CEREP panel (see text). The compounds were tested at a single concentration (10 μM), and the inhibition of binding (Y-axis of each histogram) for a known ligand to each of the 75 receptors is reported (−100% therefore represents a 2-fold increase in binding of the specific ligand in the presence of the test compound). All reactions were performed in duplicate, and the bars represent the mean (no estimate of the replicate error is shown to simplify the graphs). Only a 50% or greater inhibition (or stimulation) of binding (representing an ED50 below 10 μM for the interaction of the test compound with the particular receptor) was considered statistically and biologically significant in this screening assay. For the five compounds tested here, only one interaction (that of compound (II) with the NK2 receptor, marked by the arrowhead in FIG. 5A) was considered potentially significant, although even this interaction was weak (estimated ED50 5-10 μM).
Binding to non-target receptors was assessed using similar protocols, exploiting specific radioligands for each receptor which are well known in the art. […]

A short description of data set [3]: Pharmacokinetics following a single dose in rat (1 mg/kg iv, 3 mg/kg oral), LC-MS/MS, one-compartment model. The class given is in vivo. The following applies: for bioavailability: 3 mg/kg oral in 1% CMC vs 1 mg/kg iv, one-compartment model, read-out: F (%) oral bioavailability; for Vd: read-out: Vss (L/kg) volume of distribution; for half-life: intravenous dosing 1 mg/kg, read-out: t1/2 (mins) dominant plasma half-life. As to the method: Compounds were administered as a single dose (either 1 mg/kg bodyweight in 5% DMSO via the intravenous route or 3 mg/kg in 1% carboxymethylcellulose via the oral route) to three adult rats (using different rats for each compound and each route of administration).
Blood was then sampled at various time points (including just prior to dose administration) out to 24 hrs post dose, and the level of the various compounds was assessed using a validated LC-MS/MS assay. Briefly, 3-5 μl of the deproteinised sample was applied to a Waters Atlantis (C18 20×2.1 mm, 3 μm bead size) reverse phase chromatography column equilibrated in 0.1% formic acid in 95:5 water:actetonitrile. Over 3.5 minutes bound material was gradient eluted reaching 0.1% formic acid in 5:95 water:acetonitrile, followed by a step gradient back to 0.1% formic acid in 95:5 water:acetonitrile. The column eluent was then directed to an Applied Biosystems API 4000/3200 QTrap MS/MS mass spectrometer, with a TurboIonspray™ ion source operating in positive ion mode. The interface temperature was set at 650° C., with a 40 ms dwell time for each MRM transition, monitoring the following ions:
The internal standard in each determination was the related compound (S)-3-(2′,2′-dimethyl-propanoylamino)-caprolactam, which was spiked into the sample prior to deproteinization. The lower limit of quantitation (LLOQ) for this assay was 2.4 ng/ml for each compound except (I′), where it was 38.1 ng/ml.
Following LC-MS/MS analysis of each collected sample, the pharmacokinetic disposition of the compound was modelled using Kinetica software, a well known software package for such applications.
Compounds (VI) and (VII) were subject to pharmacokinetic analysis in rat using exactly the same protocols previous applied for compounds (I) through (V) in example 1.
We therefore subjected (VIII) to pharmacokinetic analysis in rat using exactly the same protocols previous applied for compounds (I′) through (VII) in examples 1 and 7.
The isolated (R)-enantiomer of (I) was therefore synthesised (exactly as described herein for the isolated (S)-enantiomer, but replacing the (S)-ornithine starting material with commercially available (R)-ornithine of high stereochemical purity), and the PK properties of this agent, in rat, was determined using the identical methodology described above (see Examples 1, 7 and 8).

Data set [4] relates to S. Typhinurium (TA102, TA98 and TA100). The data set can be described thus: AMES test, revertant colony formation. Format: cell-based. The following applies: at 5 mg/ml. On the procedure:
The five compounds were subjected to a standard AMES test to assess likely genotoxicity. Three His-auxotroph strains of S. Typhinurium (TA102, TA98 and TA100) were treated with each of the compounds at 5 concentrations (up to 5 mg/ml) in the presence and absence of S9 rat liver microsomal metabolising system. The number of revertant colonies was then determined by plating on trace-His minimal media.

Data set [5] in a line: In vitro stability (hydrolysis of C-Cl bond) in physiological saline, LC/MS. As to conditions: after 24 hours at 37° C. Format: physicochemical. As to the method: (§1) An obvious concern related to this molecule was the stability of the C—Cl bond. We therefore examined the stability of (VIII) in vitro, both in physiological saline and in a rat liver microsome preparation. Encouragingly, less than 2% of (VIII) had undergone hydrolysis (determined by LC/MS, with dual ion detection of the hydrolysis product (V) and the parent compound (VIII)) even after 24 hours at 37° C. […] As a result, we conclude that compound (VIII) has similar in vitro stability and intrinsic clearance to (I′).

Data set [6] is described as follows: Stability in rat liver microsome preparation. Format: in vitro ADME. The following applies: 1 μM, 1 hour at 37° C. As to the method:
as §1

The mark [7] stands for this setting: plasma, averaged across three rats.
Where [8] appears, read: plasma, iv, 1 mg/kg, averaged across three rats.

Entries after “also recorded” stand apart in the source; their conditions may differ.

Take `O=C1NCCCC[C@@H]1NC(=O)C12CC3CC(CC(C3)C1)C2` [Compound (II), 3-(adamantane-1-carbonylamino)-caprolactam]: the “major metabolites / route of metabolism detected in urine” value in data set [1] is reported as “cytochrome P450-mediated hydroxylation; also recorded: rapidly converted to (V) in vivo”. In addition, the IC50 in data set [2] was 5 to 10 µM. The bioavailability in data set [3] (setting [7]) was less than 1%. Moreover, in data set [3] (setting [8]), the Vd is 0.8 L/kg and the half-life stood at 16 min. The “effect on bacterial lawn growth” value in data set [4] is recorded as “inhibition of bacterial lawn growth”.

For `O=C1NCCCC[C@@H]1NC(=O)C12CC3CC(CC(Cl)(C3)C1)C2` [(VIII)], the “hydrolysis to (V)” value in data set [5] was “less than 2%”. Also, in data set [3], the “clearance, fold higher than (I′)” value is reported as “more than 20 fold” and the “oral bioavailability” value is given as “no detectable oral bioavailability whatsoever”. Also, the “level of analyte in plasma following oral dosing” value in data set [3] (all time-points, limit of quantitation ˜2 ng/ml) is “below the limit of quantitation”. Moreover, the AUC(0-t) in data set [3] (blood, single oral dose 3 mg/kg in 1% CMC, Tables 7-9, read-out: Exposure (min · ng/ml), oral exposure AUC 0-t (converted)) was less than 1.67 ng·h/mL. The bioavailability in data set [3] (setting [7]) was less than 1%. Further, in data set [3] (setting [8]), the clearance stood at 62.8 mL/min/kg, the Vd came to 0.7 L/kg and the half-life amounted to 15 min. The “degradation compared to a no NADPH blank run” value in data set [6] is “less than 10%”.
